Source: US9999655B2, “Use of MKS inhibitor peptide-containing compositions for treating non-small cell lung cancer with same” (Moerae Matrix, Inc., priority 2015, dated 2018)
Where no end group is shown, it is not given here.

How the values were obtained:
266 human kinases = type: biochemical; settings: peptide at 100 μM, 266 human kinases
Description: (§1) Every kinase activity measurement was conducted in duplicate.
(§2) IC50 (half maximal inhibitory concentrations) value for the MK2 inhibitor peptides identified below was determined using Millipore's IC50 Profiler Express service. […] Specifically, in these assays, a positively charged substrate is phosphorylated with a radiolabeled phosphate group from an ATP if the kinase is not inhibited by an inhibitor peptide. The positively charged substrate then is attracted to a negatively charged filter membrane, quantified with a scintillation counter, and compared to a 100% activity control.

[1] = target: Calcium/Calmodulin-Dependent Protein Kinase I (CaMKI) (Homo sapiens, UniProt Q14012); experiment: biochemical; settings: read-out: inhibition of kinase activity of CaMKI
Description: as §1, §2

[2] = target: (Homo sapiens, UniProt Q15746); type: biochemical; settings: MLCK(h); peptide 100 μM
Description: as §1, §2

[3] = target: Ca2+/calmodulin-dependent protein kinase II (CaMKII); settings: cited from earlier work
advanced NSCLC = settings: patients with advanced NSCLC; P=0.04; cited from earlier work

Calcium/Calmodulin-Dependent Protein Kinase I (CaMKI), sequence (Q14012 whole entry): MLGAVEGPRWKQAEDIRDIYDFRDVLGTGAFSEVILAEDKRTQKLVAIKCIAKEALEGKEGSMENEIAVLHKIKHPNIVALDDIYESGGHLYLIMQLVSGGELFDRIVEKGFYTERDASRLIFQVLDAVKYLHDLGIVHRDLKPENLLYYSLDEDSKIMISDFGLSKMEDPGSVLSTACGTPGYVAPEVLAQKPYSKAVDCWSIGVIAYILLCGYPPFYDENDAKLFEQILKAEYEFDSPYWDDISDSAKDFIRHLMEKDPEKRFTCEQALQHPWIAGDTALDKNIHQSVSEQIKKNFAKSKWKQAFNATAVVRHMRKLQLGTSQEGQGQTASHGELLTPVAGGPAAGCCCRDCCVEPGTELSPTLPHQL
(Homo sapiens, UniProt Q15746), sequence (Q15746 whole entry): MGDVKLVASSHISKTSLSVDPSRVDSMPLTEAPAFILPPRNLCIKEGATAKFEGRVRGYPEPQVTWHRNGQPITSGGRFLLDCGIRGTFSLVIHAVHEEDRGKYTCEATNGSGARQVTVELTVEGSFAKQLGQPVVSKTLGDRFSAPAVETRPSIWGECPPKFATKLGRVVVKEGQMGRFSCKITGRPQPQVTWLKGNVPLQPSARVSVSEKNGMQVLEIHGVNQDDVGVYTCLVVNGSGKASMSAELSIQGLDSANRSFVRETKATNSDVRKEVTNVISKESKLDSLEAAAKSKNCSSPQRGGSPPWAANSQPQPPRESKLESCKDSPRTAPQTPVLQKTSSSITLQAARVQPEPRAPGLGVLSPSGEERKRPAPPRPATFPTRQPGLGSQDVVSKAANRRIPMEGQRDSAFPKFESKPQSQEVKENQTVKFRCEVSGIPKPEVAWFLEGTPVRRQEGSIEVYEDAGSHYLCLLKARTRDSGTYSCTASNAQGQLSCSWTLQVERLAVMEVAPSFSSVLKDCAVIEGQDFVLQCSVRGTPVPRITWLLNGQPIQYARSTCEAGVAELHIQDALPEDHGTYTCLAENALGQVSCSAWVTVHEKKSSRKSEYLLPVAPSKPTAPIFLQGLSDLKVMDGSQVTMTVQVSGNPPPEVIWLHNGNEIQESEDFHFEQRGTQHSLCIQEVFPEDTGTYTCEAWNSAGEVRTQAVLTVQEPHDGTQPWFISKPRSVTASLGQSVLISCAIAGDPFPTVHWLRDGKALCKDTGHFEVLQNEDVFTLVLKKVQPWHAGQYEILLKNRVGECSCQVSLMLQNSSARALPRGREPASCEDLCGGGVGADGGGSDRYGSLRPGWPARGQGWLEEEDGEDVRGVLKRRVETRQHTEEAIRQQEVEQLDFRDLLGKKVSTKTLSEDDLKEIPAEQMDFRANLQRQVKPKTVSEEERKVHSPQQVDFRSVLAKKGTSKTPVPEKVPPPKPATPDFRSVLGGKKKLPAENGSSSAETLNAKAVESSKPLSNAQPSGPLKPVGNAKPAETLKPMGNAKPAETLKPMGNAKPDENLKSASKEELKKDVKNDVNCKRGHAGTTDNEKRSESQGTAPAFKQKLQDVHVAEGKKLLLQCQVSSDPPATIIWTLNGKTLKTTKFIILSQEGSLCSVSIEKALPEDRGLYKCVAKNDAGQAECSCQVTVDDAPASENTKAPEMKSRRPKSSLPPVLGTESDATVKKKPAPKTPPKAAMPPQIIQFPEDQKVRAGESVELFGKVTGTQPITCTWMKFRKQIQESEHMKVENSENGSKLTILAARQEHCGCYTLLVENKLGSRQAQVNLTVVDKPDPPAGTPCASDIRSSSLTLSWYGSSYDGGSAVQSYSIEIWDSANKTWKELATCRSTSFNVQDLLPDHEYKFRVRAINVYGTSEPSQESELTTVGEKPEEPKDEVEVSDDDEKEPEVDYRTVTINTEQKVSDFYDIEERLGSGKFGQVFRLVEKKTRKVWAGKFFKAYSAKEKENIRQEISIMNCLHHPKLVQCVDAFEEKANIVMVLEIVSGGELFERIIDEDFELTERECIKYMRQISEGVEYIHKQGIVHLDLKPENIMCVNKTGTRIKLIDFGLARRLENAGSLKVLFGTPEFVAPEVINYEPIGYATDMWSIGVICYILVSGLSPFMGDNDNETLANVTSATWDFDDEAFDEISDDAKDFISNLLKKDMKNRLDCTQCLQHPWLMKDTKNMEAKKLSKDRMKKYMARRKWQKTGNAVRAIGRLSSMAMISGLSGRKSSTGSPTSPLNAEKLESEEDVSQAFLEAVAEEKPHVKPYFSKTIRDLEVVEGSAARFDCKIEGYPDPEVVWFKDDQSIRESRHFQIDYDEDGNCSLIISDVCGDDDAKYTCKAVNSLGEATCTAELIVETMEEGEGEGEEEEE

With FAKLAARLYRKALARQLGVAA [MMI-0300] as the substance, how does the “off-target kinase inhibition (specificity)” value (“off-target kinase inhibition” for short) (266 human kinases) read?
Its value is “very limited off-target kinase inhibition”.

With “HRRIKAWLKKIKALARQLGVAA (Mammalian) [MMI-0500]” as the substance, how does the “off-target kinase inhibition” value (266 human kinases) read?
Its value is “very limited off-target kinase inhibition”.

Which “off-target kinase inhibition” value (266 human kinases) does the source give for KAFAKLAARLYRKALARQLGVAA [MMI-0400] here?
The value was “very limited off-target kinase inhibition”.

For YARAAARQARAKALARQLGVAA [MMI-0100], which inhibition at 100 µM [1] is on record?
The inhibition at 100 µM was over 65%.

What about the “% activity” value [2] of the same substance?
Its value is 85%.

Which “off-target kinase inhibition” value (266 human kinases) does the source give for “YARAAARQARAKALNRQLGVA (Mammalian) [MMI-0200]” here?
The value was “very limited off-target kinase inhibition”.

Which IC50 [3] does the source give for “autocamtide-2 related inhibitory peptide [AIP]” here?
The IC50 was 100 nM.

With cisplatin/vinorelbine as the substance, how does the overall survival (advanced NSCLC) read?
Its overall survival is 10.1 months.
